{"source": "paper PMC7407491", "about": "“The Addition of a Synthetic LPS-Targeting Domain Improves Serum Stability While Maintaining Antimicrobial, Antibiofilm, and Cell Stimulating Properties of an Antimicrobial Peptide” (Biomolecules, 2020)", "key": {"MRSA biofilm": {"system": "MRSA biofilm", "assay": "Biofilm inhibition assay, crystal violet", "assay_type": "cell-based, Methicillin-resistant Staphylococcus aureus", "details": "minimal salt media, 48 h 37 °C static, crystal violet OD 590 nm; p < 0.05 vs control; concentration dependent", "experimental": "Plates were placed in a static incubator at 37 °C for 48 h; the time required for untreated wells to form biofilm. After incubation, treated media was removed and wells were rinsed with 155 µL of PBS to remove planktonic cells. After sufficient air drying of wells, 150 µL of 0.1% Crystal violet stain was added to each well and incubated at room temperature for 30 min, after which, dye was removed and wells were rinsed again with 155 µL of PBS. After sufficient drying of wells, 150 µL of 70% ethanol solution was added to each well and incubated at room temperature for 30 min. After 30 min, 100 µL of each well was added to a new 96-well plate and absorbance was measured at an OD of 590 nm."}, "S. typhimurium biofilm": {"system": "S. typhimurium biofilm", "assay": "Enumeration of viable cells after biofilm inhibition", "assay_type": "cell-based, Salmonella typhimurium", "details": "4 µg/mL, 48 h biofilm formation, CFU plated", "experimental": "In order to investigate whether prevention or degradation of biofilm by peptide treatment impacted bacterial cell growth within the biofilm, an enumeration assay was carried out. The following protocol was developed using methods described in the work by Wilson et al.. Briefly, in separate 15 mL culture tubes, 20 µL of overnight culture of either E. coli, S. typhimurium, or MRSA were added to 1 mL of minimal salt media (40 mM […]; 22 mM KH2PO4; […] NH4CL; 740 mM NaCl; 2 mM MgSO4; 0.1 mM CaCl2; 22 mM supplemented with D-Glucose) and treated with PG-1 or SynPG-1. Due to the laborious procedure, the study was limited to measuring cell viability for only two concentrations, basing the choice on the highest significant reduction of biomass from crystal violet staining for each strain. […] These concentrations were chosen for the enumeration assay. In instances where no substantial reduction was seen, as in the case of E. coli, the highest tested biomass concentration, or higher, was chosen to confirm the lack of activity on viability. […] Tubes were placed in a static incubator at 37 °C for 48 h; the time required for untreated wells to form biofilm. After 48 h, treated media was removed and wells were rinsed with 1 mL of PBS to remove planktonic cells. […] CFU was recorded. […]"}}, "note": "Bridge positions count the residues as written; N and C are the ends. Peptide text beside a SMILES is read from it.", "data": [{"smiles": "CC[C@H](C)[C@H](NC(=O)[C@H](CCCCN)NC(=O)[C@H](CCCNC(=N)N)NC(=O)[C@H](CC(C)C)NC(=O)[C@H](CC(C)C)NC(=O)[C@H](CCCNC(=N)N)NC(=O)[C@H](CCCNC(=N)N)NC(=O)[C@H](CC(C)C)NC(=O)CN)C(=O)N[C@@H](CCCNC(=N)N)C(=O)NCC(=O)N[C@@H](CCCNC(=N)N)C(=O)N[C@@H](Cc1c[nH]c2ccccc12)C(=O)N[C@@H](CCCCN)C(=O)NCC(=O)NCC(=O)NCC(=O)N[C@@H](CCCNC(=N)N)C(=O)NCC(=O)NCC(=O)N[C@@H](CCCNC(=N)N)C(=O)N[C@@H](CC(C)C)C(=O)N[C@H]1CSSC[C@@H](C(=O)N[C@H](C(=O)NCC(=O)N[C@@H](CCCNC(=N)N)C(=O)O)C(C)C)NC(=O)[C@H](C(C)C)NC(=O)[C@@H]2CSSC[C@H](NC(=O)[C@H](Cc3ccc(O)cc3)NC1=O)C(=O)N[C@@H](CCCNC(=N)N)C(=O)N[C@@H](CCCNC(=N)N)C(=O)N[C@@H](CCCNC(=N)N)C(=O)N[C@@H](Cc1ccccc1)C(=O)N2", "note": "[SynPG-1, Syn-Protegrin-1] (H-GLRRLLRKIRGRWKGGGRGGRLCYCRRRFCVCVGR-OH; disulfide 23-32, 25-30; N-terminus and C-terminus assumed)", "values": [{"measurement": "Concentration at which inhibition of biofilm formation was seen", "setting": "MRSA biofilm", "value": 2, "unit": "µg/mL"}, {"measurement": "Reduction of mean % growth of control compared with PG-1", "setting": "S. typhimurium biofilm", "value": "significantly lower reduction of mean % growth of control"}]}]}
